Test results: ChEMBL document CHEMBL3785039, “The pharmacokinetics of diclofenac sodium following intravenous and oral administration” (Eur J Clin Pharmacol, 1979)

How the values were obtained:
Type in all cases: ADME, organism-based
Homo sapiens [1] = assay: First order inter-compartment transfer rate constant from central to tissue compartment in healthy subject (7 subjects) at 50 mg, iv by three compartment open model; conditions: in vivo
Homo sapiens [2] = assay: First order inter-compartment transfer rate constant from tissue to central compartment in healthy subject (7 subjects) at 50 mg, iv by three compartment open model; conditions: in vivo
Homo sapiens [3] = assay: First order inter-compartment transfer rate constant from central to deep tissue compartment in healthy subject (7 subjects) at 50 mg, iv by three compartment open model; conditions: in vivo
Homo sapiens [4] = assay: First order inter-compartment transfer rate constant from deep tissue to central compartment in healthy subject (7 subjects) at 50 mg, iv by three compartment open model; conditions: in vivo
[5] = Elimination rate constant in healthy subject (7 subjects) at 50 mg, iv by three compartment open model; conditions: human, in vivo
Homo sapiens [6] = assay: Fast disposition half life in healthy subject (7 subjects) at 50 mg, iv by three compartment open model; conditions: in vivo
[7] = Slow disposition half life in healthy subject (7 subjects) at 50 mg, iv by three compartment open model; conditions: human, in vivo, read-out: alphat1/2 (converted)
[8] = Terminal half life in healthy subject (7 subjects) at 50 mg, iv by three compartment open model; conditions: human, in vivo, read-out: beta t1/2 (converted)
[9] = AUC (0 to infinity) in healthy subject (7 subjects) at 50 mg, iv by three compartment open model; design: dose 50 mg, route intravenous, time infinity; conditions: human, in vivo
[10] = Plasma clearance in healthy subject (7 subjects) at 50 mg, iv by three compartment open model; conditions: human
[11] = Total volume of distribution in healthy subject (7 subjects) at 50 mg, iv by three compartment open model; conditions: human, in vivo
[12] = Plasma concentration in healthy subject (7 subjects) at 50 mg, po administered as single dose measured after 1 hr by gas chromatography; conditions: human
[13] = Plasma concentration in healthy subject (7 subjects) at 50 mg, po administered as single dose measured after 1.5 hrs by gas chromatography; conditions: human
[14] = Plasma concentration in healthy subject (7 subjects) at 50 mg, po administered as single dose measured after 2 hrs by gas chromatography; conditions: human
[15] = Plasma concentration in healthy subject (7 subjects) at 50 mg, po administered as single dose measured after 2.5 hrs by gas chromatography; conditions: human
[16] = Plasma concentration in healthy subject (7 subjects) at 50 mg, po administered as single dose measured after 3 hrs by gas chromatography; conditions: human
[17] = Plasma concentration in healthy subject (7 subjects) at 50 mg, po administered as single dose measured after 3.5 hrs by gas chromatography; conditions: human
[18] = Plasma concentration in healthy subject (7 subjects) at 50 mg, po administered as single dose measured after 4 hrs by gas chromatography; conditions: human
[19] = Plasma concentration in healthy subject (7 subjects) at 50 mg, po administered as single dose measured after 4.5 hrs by gas chromatography; conditions: human
[20] = Plasma concentration in healthy subject (7 subjects) at 50 mg, po administered as single dose measured after 5 hrs by gas chromatography; conditions: human
[21] = Plasma concentration in healthy subject (7 subjects) at 50 mg, po administered as single dose measured after 5.5 hrs by gas chromatography; conditions: human
[22] = Plasma concentration in healthy subject (7 subjects) at 50 mg, po administered as single dose measured after 7 hrs by gas chromatography; conditions: human
[23] = Plasma concentration in healthy subject (7 subjects) at 50 mg, po administered as single dose measured after 6 hrs by gas chromatography; conditions: human
[24] = Plasma concentration in healthy subject (7 subjects) at 50 mg, po administered as single dose measured after 6.5 hrs by gas chromatography; conditions: human
[25] = Plasma concentration in healthy subject (7 subjects) at 50 mg, po administered as single dose measured after 8 hrs by gas chromatography; conditions: human
[26] = Plasma concentration in healthy subject (7 subjects) at 50 mg, po administered as single dose measured after 9 hrs by gas chromatography; conditions: human
[27] = Cmax in healthy subject (7 subjects) at 50 mg, po administered as single dose; design: dose 50 mg, route oral; conditions: human, in vivo
[28] = Tmax in healthy subject (7 subjects) at 50 mg, po administered as single dose; conditions: human, in vivo
Homo sapiens [29] = assay: Tlag in healthy subject (7 subjects) at 50 mg, po administered as single dose; conditions: in vivo
[30] = AUC (0 to infinity) in healthy subject (7 subjects) at 50 mg, po administered as single dose; design: dose 50 mg, route oral, time infinity; conditions: human, in vivo
[31] = Elimination rate constant in healthy subject (7 subjects) at 50 mg, po administered as single dose; conditions: human, in vivo
[32] = Terminal half life in healthy subject (7 subjects) at 50 mg, po administered as single dose; conditions: human, in vivo, read-out: beta t1/2 (converted)
[33] = Oral bioavailability in healthy subject (7 subjects) at 50 mg administered as single dose; conditions: human, in vivo
[34] = Cmax in healthy subject (7 subjects) at 50 mg, iv measured after 5 mins; design: dose 50 mg, route intravenous; conditions: human, in vivo

K (Homo sapiens [1]): 5.5 h⁻¹
K (Homo sapiens [2]): 5.2 h⁻¹
K (Homo sapiens [3]): 2.6 h⁻¹
K (Homo sapiens [4]): 0.8 h⁻¹
k el [5]: 0.00236 s⁻¹
t1/2 (Homo sapiens [6]): 3 min
half-life [7]: 0.26 h
half-life [8]: 1.1 h
AUC(0-inf) [9]: 3290 ng·h/mL
clearance [10]: 263 mL/min
Vd [11]: 0.172 L/kg
concentration at 1 h [12]: 200 ng/mL
concentration at 1.5 h [13]: 100 ng/mL
concentration at 2 h [14]: 860 ng/mL
concentration at 2.5 h [15]: 710 ng/mL
concentration at 3 h [16]: 690 ng/mL
concentration at 3.5 h [17]: 240 ng/mL
concentration at 4 h [18]: 110 ng/mL
concentration at 4.5 h [19]: 215 ng/mL
concentration at 5 h [20]: 95 ng/mL
concentration at 5.5 h [21]: 54 ng/mL
concentration at 7 h [22]: 15 ng/mL
concentration at 6 h [23]: 35 ng/mL
concentration at 6.5 h [24]: 25 ng/mL
concentration at 8 h [25]: 11 ng/mL
concentration at 9 h [26]: 3 ng/mL
Cmax [27]: 2000 ng/mL
Tmax [28]: 2.5 h
Tlag (Homo sapiens [29]): 1.9 h
AUC(0-inf) [30]: 1670 ng·h/mL
k el [31]: 0.000183 s⁻¹
half-life [32]: 1.8 h
bioavailability [33]: 54%
Cmax [34]: 7800 ng/mL
Structure (SMILES): O=C([O-])Cc1ccccc1Nc1c(Cl)cccc1Cl.[Na+] [DICLOFENAC SODIUM]
